This assay has as its target T1, KRAS G12C 1-169, his-tagged protein, GDP-loaded (Homo sapiens, UniProt P01116, G12C).
T1 construct: KRAS G12C 1-169, his-tagged protein, GDP-loaded; His tag
As to the kind of experiment: Biochemical assay: covalent modification of KRAS G12C, analysed by mass spectrometry (RapidFire/TOF or Q-Exactive). Note: time not given here. Type of assay: binding. Particulars: Modification activity, modification percentage from MS peak intensities. A digest of the protocol: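 GDP-loaded His-tagged KRAS G12C 1-169 (2 μM or 0.5 μM in 20 mM Hepes, 150 mM NaCl, 1 mM MgCl2) reacted with compound at 32 μM or 8 μM final (2% DMSO) for a set time, then quenched with formic acid. Percent covalent modification from deconvoluted intact-protein MS peak intensities (RapidFire/TOF or LC-Q Exactive).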
Consider `C=CC(=O)N1CC2(CCN(c3ncc(C#N)c(-c4c(C)ccc5[nH]ncc45)n3)C2)C1` [Compound I-145, 2-(2-acryloyl-2,6-diazaspiro[3.4]octan-6-yl)-4-(5-methyl-1H-indazol-4-yl)pyrimidine-5-carbonitrile], for which the Binding % entry was “+ (+ indicates binding activity greater than 0% and up to 50%)”. To `C=CC(=O)N1CC2(CCN(c3nc(OCCCN(C)C)cc(-c4c(C)ccc5[nH]ncc45)n3)C2)C1` [Compound I-146, 1-(6-(4-(3-(dimethylamino)pro-poxy)-6-(5-methyl-1H-indazol-4-yl)pyrimidin-2-yl)-2,6-diazaspiro[3.4]octan-2-yl)prop-2-en-1-one] belongs “+ (+ indicates binding activity greater than 0% and up to 50%)”; to `C=CC(=O)N1CC2(CCN(c3nc(-c4c(C)ccc5[nH]ncc45)c(C#N)c(N4CC(N(C)C)C4)n3)C2)C1` [Compound I-147, 2-(2-acryloyl-2,6-diazaspiro[3.4]octan-6-yl)-4-(3-(dimethylamino)azeti-din-1-yl)-6-(5-methyl-1H-indazol-4-yl)pyrimidine-5-carbonitrile], “+ (+ indicates binding activity greater than 0% and up to 50%)”; to `C=CC(=O)N1CC2(CCN(c3nc(OC[C@@H]4CCCN4C)cc(-c4c(C)ccc5[nH]ncc45)n3)C2)C1` [Compound I-148, (S)-1-(6-(4-(5-methyl-1H-indazol-4-yl)-6-((1-methylpyrrolidin-2-yl)methoxy)pyrimidin-2-yl)-2,6-diazaspiro[3.4]octan-2-yl)prop-2-en-1-one], “+ (+ indicates binding activity greater than 0% and up to 50%)”. As for `C=CC(=O)N1CC2(CCN(c3nc(OCc4cnc(OC)nc4)nc(-c4c(C)ccc5[nH]ncc45)c3C#N)C2)C1` [Compound I-149, 4-(2-acryloyl-2,6-diazaspiro[3.4]octan-6-yl)-2-((2-methoxypyrimidin-5-yl)methoxy)-6-(5-methyl-1H-indazol-4-yl)pyrimidine-5-carbonitrile], the entry is “+++ (+++ indicates binding activity greater than 85%)”. To `C=CC(=O)N1CC2(CCN(c3nc(OCc4cccnc4)nc(-c4c(C)ccc5[nH]ncc45)c3C#N)C2)C1` [Compound I-150, 4-(2-acryloyl-2,6-diazaspiro[3.4]octan-6-yl)-6-(5-methyl-1H-indazol-4-yl)-2-(pyridin-3-ylmethoxy)pyrimidine-5-carbonitrile] belongs “++ (++ indicates binding activity from 50 to 85%)”; to `C=CC(=O)N1CC2(CCN(c3nc(OCc4cccc(OC)c4)nc(-c4c(C)ccc5[nH]ncc45)c3C#N)C2)C1` [Compound I-151, 4-(2-acryloyl-2,6-diazaspiro[3.4]octan-6-yl)-2-((3-methoxybenzyl)oxy)-6-(5-methyl-1H-indazol-4-yl)pyrimidine-5-carbonitrile], “++ (++ indicates binding activity from 50 to 85%)”; to `C=CC(=O)N1CC2(CCN(c3nc(OCc4cc(F)cc(F)c4)nc(-c4c(C)ccc5[nH]ncc45)c3C#N)C2)C1` [Compound I-152], “++ (++ indicates binding activity from 50 to 85%)”. In the case of `C=CC(=O)N1CC2(CCN(c3nc(OCc4ccc(N5CCOCC5)cn4)nc(-c4c(C)ccc5[nH]ncc45)c3C#N)C2)C1` [Compound I-153, 4-(2-acryloyl-2,6-diazaspiro[3.4]octan-6-yl)-6-(5-methyl-1H-indazol-4-yl)-2-((5-morpholinopyridin-2-yl)methoxy)pyrimidine-5-carbonitrile], the Binding % result was “++ (++ indicates binding activity from 50 to 85%)”.

For `C=CC(=O)N1CC2(CCN(c3nc(OCc4ncccn4)nc(-c4c(C)ccc5[nH]ncc45)c3C#N)C2)C1` [Compound I-154, 4-(2-acryloyl-2,6-diazaspiro[3.4]octan-6-yl)-6-(5-methyl-1H-indazol-4-yl)-2-(pyrimidin-2-ylmethoxy)pyrimidine-5-carbonitrile], the Binding % result is “++ (++ indicates binding activity from 50 to 85%)”.

Turning to `C=CC(=O)N1CC2(CCN(c3nc(OCc4ccc(C(F)(F)F)cn4)nc(-c4c(C)ccc5cnn(C)c45)c3C#N)C2)C1` [Compound I-155, 4-(2-acryloyl-2,6-diazaspiro[3.4]octan-6-yl)-6-(1,6-dimethyl-1H-indazol-7-yl)-2-((5-(trifluoromethyl)pyri-din-2-yl)methoxy)pyrimidine-5-carbonitrile], the Binding % result is “++ (++ indicates binding activity from 50 to 85%)”.

Take `C=CC(=O)N1CC2(CCN(c3nc(OCc4cccc(C(F)(F)F)n4)nc(-c4c(C)ccc5cnn(C)c45)c3C#N)C2)C1` [Compound I-156, 4-(2-acryloyl-2,6-diazaspiro[3.4]octan-6-yl)-6-(1,6-dimethyl-1H-indazol-7-yl)-2-((6-(trifluoromethyl)pyri-din-2-yl)methoxy)pyrimidine-5-carbonitrile]: the Binding % entry is on record as “++ (++ indicates binding activity from 50 to 85%)”. As for `C=CC(=O)N1CC2(CCN(c3nc(OCc4ccc(C(F)(F)F)cc4)nc(-c4c(C)ccc5cnn(C)c45)c3C#N)C2)C1` [Compound I-157, 4-(2-acryloyl-2,6-diazaspiro[3.4]octan-6-yl)-6-(1,6-dimethyl-1H-indazol-7-yl)-2-((4-(trifluoromethyl)ben-zyl)oxy)pyrimidine-5-carbonitrile], the entry is “++ (++ indicates binding activity from 50 to 85%)”. As for `C=CC(=O)N1CC2(CCN(c3nc(OCc4cccc(C(F)(F)F)c4)nc(-c4c(C)ccc5cnn(C)c45)c3C#N)C2)C1` [Compound I-158, 4-(2-acryloyl-2,6-diazaspiro[3.4]octan-6-yl)-6-(1,6-dimethyl-1H-indazol-7-yl)-2-((3-(trifluoromethyl)ben-zyl)oxy)pyrimidine-5-carbonitrile], the Binding % entry was “++ (++ indicates binding activity from 50 to 85%)”. As for `C=CC(=O)N1CC2(CCN(c3nc(OCc4cccc(OC)c4)nc(-c4c(C)ccc5cnn(C)c45)c3C#N)C2)C1` [Compound I-159, 4-(2-acryloyl-2,6-diazaspiro[3.4]octan-6-yl)-6-(1,6-dimethyl-1H-indazol-7-yl)-2-((3-methoxybenzyl)oxy) pyrimidine-5-carbonitrile], the entry is “++ (++ indicates binding activity from 50 to 85%)”. For `C=CC(=O)N1CC2(CCN(c3nc(N4CCC(N5CCN(C)CC5)CC4)nc(-c4c(C)ccc5cnn(C)c45)c3C#N)C2)C1` [Compound I-160, 4-(2-acryloyl-2,6-diazaspiro[3.4]octan-6-yl)-6-(1,6-dimethyl-1H-indazol-7-yl)-2-(4-(4-methylpiperazin-1-yl)piperidin-1-yl)pyrimidine-5-carbonitrile], the Binding % entry is reported as “++ (++ indicates binding activity from 50 to 85%)”. To `C=CC(=O)N1CC2(CCN(c3nc(OCc4cnc(OC)nc4)nc(-c4c(C)ccc5cnn(C)c45)c3C#N)C2)C1` [Compound I-161, 4-(2-acryloyl-2,6-diazaspiro[3.4]octan-6-yl)-6-(1,6-dimethyl-1H-indazol-7-yl)-2-((2-methoxypyrimidin-5-yl)methoxy)pyrimidine-5-carbonitrile] belongs “++ (++ indicates binding activity from 50 to 85%)”; to `C=CC(=O)N1CC2(CCN(c3nc(OCc4ccc(N5CCOCC5)cn4)nc(-c4c(C)ccc5cnn(C)c45)c3C#N)C2)C1` [Compound I-162, 4-(2-acryloyl-2,6-diazaspiro[3.4]octan-6-yl)-6-(1,6-dimethyl-1H-indazol-7-yl)-2-((5-morpholinopyridin-2-yl)methoxy)pyrimidine-5-carbonitrile], “++ (++ indicates binding activity from 50 to 85%)”; to `C=CC(=O)N1CC2(CCN(c3nc(OCc4ccccc4)nc(-c4c(C)ccc5cnn(C)c45)c3C#N)C2)C1` [Compound I-163, 4-(2-acryloyl-2,6-diazaspiro[3.4]octan-6-yl)-2-(benzyloxy)-6-(1,6-dimethyl-1H-indazol-7-yl)pyrimidine-5-carbonitrile], “++ (++ indicates binding activity from 50 to 85%)”. As for `C=CC(=O)N1CC2(CCN(c3nc(OCc4ccnnc4)nc(-c4c(C)ccc5cnn(C)c45)c3C#N)C2)C1` [Compound I-164, 4-(2-acryloyl-2,6-diazaspiro[3.4]octan-6-yl)-6-(1,6-dimethyl-1H-indazol-7-yl)-2-(pyridazin-4-ylmethoxy)pyrimidine-5-carbonitrile], the entry is “++ (++ indicates binding activity from 50 to 85%)”; as for `C=CC(=O)N1CC2(CCN(c3nc(OCc4cc(F)cc(F)c4)nc(-c4c(C)ccc5cnn(C)c45)c3C#N)C2)C1` [Compound I-165], “++ (++ indicates binding activity from 50 to 85%)”. To `C=CC(=O)N1CC2(CCN(c3nc(OCc4cc(C(F)(F)F)ccn4)nc(-c4c(C)ccc5cnn(C)c45)c3C#N)C2)C1` [Compound I-166, 4-(2-acryloyl-2,6-diazaspiro[3.4]octan-6-yl)-6-(1,6-dimethyl-1H-indazol-7-yl)-2-((4-(trifluoromethyl)pyri-din-2-yl)methoxy)pyrimidine-5-carbonitrile] belongs “++ (++ indicates binding activity from 50 to 85%)”; to `C=CC(=O)N1CC2(CCN(c3nc(OC[C@@H]4CCCN4C)nc(-c4ccnc(N)n4)c3C#N)C2)C1` [Compound I-167, (S)-6-(2-acryloyl-2,6-diazaspiro[3.4]octan-6-yl)-2′-amino-2-((1-methylpyrrolidin-2-yl)methoxy)-[4,4′-bipyrimidine]-5-carbonitrile], “+ (+ indicates binding activity greater than 0% and up to 50%)”; to `C=CC(=O)N1CC2(CCN(c3nc(OCc4ncccn4)nc(-c4c(C)ccc5cnn(C)c45)c3C#N)C2)C1` [Compound I-168, 4-(2-acryloyl-2,6-diazaspiro[3.4]octan-6-yl)-6-(1,6-dimethyl-1H-indazol-7-yl)-2-(pyrimidin-2-ylmethoxy)pyrimidine-5-carbonitrile], “+ (+ indicates binding activity greater than 0% and up to 50%)”.

The record behind these values is patent US12134620B2 (ARAXES PHARMA LLC, priority 2018, dated 2024).
